In ChEMBL document CHEMBL1201862, “PubChem BioAssay data set” (2004):
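Protocol summary: plate cells (96-well), add compound at 5 concentrations, incubate 48 h, interpolate endpoints linearly. GI50 is the concentration that inhibits growth by half.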 Active and inactive are the calls of the source. No stated cut-off is given here; in the data, active = GI50 up to about 1.1 µM and inactive = higher.

How the values were obtained:
Test in all cases: NCI-60 cell line screen, 48 h
COLO 205 = tested on: COLO 205
DU-145 = tested on: DU-145
EKVX = tested on: EKVX
HCT-15 = tested on: HCT-15
HOP-62 = tested on: HOP-62
K562 = tested on: K562
MDA-MB-435 = tested on: MDA-MB-435
MDA-N = tested on: MDA-N
Malme-3M = tested on: Malme-3M
NCI-H23 = tested on: NCI-H23
NCI-H460 = tested on: NCI-H460
RPMI-8226 = tested on: RPMI-8226
RXF 393 = tested on: RXF 393
SF-268 = tested on: SF-268
SF-295 = tested on: SF-295
SK-OV-3 = tested on: SK-OV-3
SNB-19 = tested on: SNB-19
SR = tested on: SR
T47D = tested on: T47D
HL-60 = tested on: HL-60

Compound | GI50 (COLO 205) | GI50 (DU-145) | GI50 (EKVX) | GI50 (HCT-15) [µM] | GI50 (HOP-62) | GI50 (K562) | GI50 (MDA-MB-435) | GI50 (MDA-N) | GI50 (Malme-3M) | GI50 (NCI-H23) | GI50 (NCI-H460) | GI50 (RPMI-8226) | GI50 (RXF 393) | GI50 (SF-268) | GI50 (SF-295) | GI50 (SK-OV-3) | GI50 (SNB-19) | GI50 (SR) | GI50 (T47D) | GI50 (HL-60)
COc1ccc(N2C(=O)C3c4[nH]c5ccccc5c4C4CCC(c5ccccc5)CC4C3C2=O)cc1 (stereo not given) | > 40.4 µM (inactive) | 57.3 µM (inactive) | 25.1 µM (inactive) | 36 | 7.28 µM (inactive) | 11.2 µM (inactive) | > 50.5 µM (inactive) | 52.8 µM (inactive) | 3.38 µM (inactive) | 19.8 µM (inactive) | 10.3 µM (inactive) | 18.5 µM (inactive) | 10.2 µM (inactive) | 10.4 µM (inactive) | 22.9 µM (inactive) | 20.2 µM (inactive) | 12.5 µM (inactive) | 0.424 µM (active) | > 66.4 µM (inactive) | 
COP(=O)(OC)/C(=C/c1cn(C(C)=O)c2ccccc12)NC(C)=O | 61.4 µM (inactive) | > 100 µM (inactive) |  | 18.1 | 41.3 µM (inactive) | 6.75 µM (inactive) | 4.62 µM (inactive) | 13.8 µM (inactive) |  | 37.7 µM (inactive) | 52.5 µM (inactive) | 12.6 µM (inactive) |  |  | 37.2 µM (inactive) | > 100 µM (inactive) |  | 15.8 µM (inactive) | 38.5 µM (inactive) | 13.1 µM (inactive)
CCC(c1ccc(OC)cc1)C1NC(=S)NC1=O (stereo not given) | > 50 µM (inactive) | > 50 µM (inactive) | 34.2 µM (inactive) | > 50 | > 50 µM (inactive) | 17.5 µM (inactive) | > 50 µM (inactive) | > 50 µM (inactive) | > 50 µM (inactive) | > 50 µM (inactive) | > 50 µM (inactive) | > 50 µM (inactive) | > 50 µM (inactive) | > 50 µM (inactive) | > 50 µM (inactive) | > 50 µM (inactive) | > 50 µM (inactive) |  | > 50 µM (inactive) | 12.4 µM (inactive)
CCOc1ccc(NC(=O)C(=O)C(/C(=N/N)C(=O)OC)c2nc3ccc([N+](=O)[O-])cc3nc2O)cc1 (stereo not given) | > 100 µM (inactive) | > 100 µM (inactive) | > 100 µM (inactive) | > 100 | > 100 µM (inactive) | > 100 µM (inactive) | > 100 µM (inactive) | > 100 µM (inactive) | > 100 µM (inactive) | > 100 µM (inactive) | > 100 µM (inactive) | 24.2 µM (inactive) | 36.1 µM (inactive) | > 100 µM (inactive) | > 100 µM (inactive) | > 100 µM (inactive) | > 100 µM (inactive) | 70 µM (inactive) | > 100 µM (inactive) | 
CNn1c(-c2ccccc2)n[nH]c1=O | > 100 µM (inactive) | > 100 µM (inactive) | > 100 µM (inactive) | > 100 | > 100 µM (inactive) | > 100 µM (inactive) | > 100 µM (inactive) | > 100 µM (inactive) | > 100 µM (inactive) | > 100 µM (inactive) | > 100 µM (inactive) | > 100 µM (inactive) |  | > 100 µM (inactive) | > 100 µM (inactive) | > 100 µM (inactive) | > 100 µM (inactive) | > 100 µM (inactive) | > 100 µM (inactive) | > 100 µM (inactive)
CCCNc1[nH]c(C(=O)c2ccccc2)c(N)c1C(=S)Nc1ccccc1 | > 100 µM (inactive) | > 100 µM (inactive) | > 100 µM (inactive) | > 100 | > 100 µM (inactive) | > 100 µM (inactive) | > 100 µM (inactive) | > 100 µM (inactive) | > 100 µM (inactive) | > 100 µM (inactive) | > 100 µM (inactive) |  |  | > 100 µM (inactive) | > 100 µM (inactive) | > 100 µM (inactive) | > 100 µM (inactive) | > 100 µM (inactive) | > 100 µM (inactive) | > 100 µM (inactive)
C[C@@H](NC(=O)OC1C=CC2(CC1)C(=O)N(C)c1ccccc12)c1cccc2ccccc12 (stereo not given in full) | 15.1 µM (inactive) | > 25 µM (inactive) | 12 µM (inactive) | 14.9 | > 25 µM (inactive) | 15.1 µM (inactive) | 9.57 µM (inactive) | 15.5 µM (inactive) |  | 12.2 µM (inactive) | 18.2 µM (inactive) | 8.79 µM (inactive) |  | 7.36 µM (inactive) | 12.7 µM (inactive) | > 25 µM (inactive) | > 25 µM (inactive) | 10.2 µM (inactive) | 7.26 µM (inactive) | 0.944 µM (active)
O=C(Sc1c(-c2ccccc2)c(=O)n(-c2ccccc2)c(=S)n1-c1ccccc1)c1ccc(Cl)cc1 | > 100 µM (inactive) | > 100 µM (inactive) | > 100 µM (inactive) | > 100 | > 100 µM (inactive) | 75 µM (inactive) | > 100 µM (inactive) | > 100 µM (inactive) | > 100 µM (inactive) | > 100 µM (inactive) | > 100 µM (inactive) |  | > 100 µM (inactive) | > 100 µM (inactive) | > 100 µM (inactive) | > 100 µM (inactive) | > 100 µM (inactive) | > 100 µM (inactive) | 71 µM (inactive) | > 100 µM (inactive)
Cc1ccc(C)c(COCCOCn2ccc(N)nc2=O)c1 | > 100 µM (inactive) | > 100 µM (inactive) | > 100 µM (inactive) | > 100 | > 100 µM (inactive) | > 100 µM (inactive) | > 100 µM (inactive) | > 100 µM (inactive) | > 100 µM (inactive) | > 100 µM (inactive) | > 100 µM (inactive) |  | > 100 µM (inactive) | > 100 µM (inactive) | > 100 µM (inactive) | > 100 µM (inactive) | > 100 µM (inactive) | > 100 µM (inactive) | > 100 µM (inactive) | 18.5 µM (inactive)
O=C(c1cccs1)N(C(=O)N1CCC(c2ccccc2)CC1)c1ccccc1 | 27.2 µM (inactive) | > 100 µM (inactive) | 7.67 µM (inactive) | 28.1 | 36 µM (inactive) | 22.7 µM (inactive) | 29.4 µM (inactive) | 43.8 µM (inactive) | 15.8 µM (inactive) | 40.6 µM (inactive) | 43.7 µM (inactive) | 12.6 µM (inactive) | 16.8 µM (inactive) | 73.6 µM (inactive) | 42.7 µM (inactive) | 88.3 µM (inactive) | > 100 µM (inactive) |  | 26.1 µM (inactive) | 28.8 µM (inactive)
Nc1ccc2c(c1)C1Oc3ccccc3CC1CO2 (stereo not given) | > 100 µM (inactive) | > 100 µM (inactive) | > 100 µM (inactive) | 15.7 | > 100 µM (inactive) | > 100 µM (inactive) | > 100 µM (inactive) | > 100 µM (inactive) | > 100 µM (inactive) | > 100 µM (inactive) |  | > 100 µM (inactive) |  | > 100 µM (inactive) | > 100 µM (inactive) | > 100 µM (inactive) |  | > 100 µM (inactive) | 76 µM (inactive) | > 100 µM (inactive)
CCOc1nc2sc3c(c2c(=O)n1CCSSCCn1c(OCC)nc2sc4c(c2c1=O)CCCC4)CCCC3 | > 100 µM (inactive) | > 100 µM (inactive) | > 100 µM (inactive) | > 100 | > 100 µM (inactive) | > 100 µM (inactive) | > 100 µM (inactive) | > 100 µM (inactive) | > 100 µM (inactive) | > 100 µM (inactive) | > 100 µM (inactive) | > 100 µM (inactive) |  | > 100 µM (inactive) | > 100 µM (inactive) | > 100 µM (inactive) | > 100 µM (inactive) | > 100 µM (inactive) | > 100 µM (inactive) | 
COc1cc(Br)c(CC2C3=C(CCN2C(=O)C2CCC2)CC(=O)CC3)cc1O (stereo not given) | 19.5 µM (inactive) | 49.4 µM (inactive) | 30.2 µM (inactive) | 18.7 | 44.2 µM (inactive) | 21.6 µM (inactive) | 17.1 µM (inactive) | 19.6 µM (inactive) | 28.3 µM (inactive) | 18.2 µM (inactive) | 45.3 µM (inactive) | 32.7 µM (inactive) |  | 31.3 µM (inactive) | 33.5 µM (inactive) | 56.9 µM (inactive) | 51.2 µM (inactive) | 38.4 µM (inactive) | 26.2 µM (inactive) | 5.9 µM (inactive)
O=C1C(Cl)=C(N2C(=O)CCC2=O)C(=O)c2ccccc21 | 15.2 µM (inactive) | 32.7 µM (inactive) | 34.2 µM (inactive) | 13.2 | > 100 µM (inactive) | 2.83 µM (inactive) | 19.8 µM (inactive) | 19.4 µM (inactive) |  | 29 µM (inactive) | 53.6 µM (inactive) |  | 18.5 µM (inactive) | 40.1 µM (inactive) | > 100 µM (inactive) | > 100 µM (inactive) | 52.6 µM (inactive) | 32 µM (inactive) | 32.4 µM (inactive) | 2.51 µM (inactive)
Nc1nc(O)c2ncn(C3C=CC(CO)C3)c2n1 (stereo not given) | > 100 µM (inactive) | > 100 µM (inactive) | > 100 µM (inactive) | > 100 | > 100 µM (inactive) | > 100 µM (inactive) | > 100 µM (inactive) | > 100 µM (inactive) | > 100 µM (inactive) | > 100 µM (inactive) | > 100 µM (inactive) | > 100 µM (inactive) | > 100 µM (inactive) | > 100 µM (inactive) | > 100 µM (inactive) | > 100 µM (inactive) | > 100 µM (inactive) | > 100 µM (inactive) | > 100 µM (inactive) | 
